From patent US12398121B2 (Nuvation Bio Inc., priority 2018, dated 2025)
Like-named read-outs stand apart in the source and are kept apart here.

Columns and labels:
[1] = molecular target: Human recombinant PARP1 (Homo sapiens, UniProt P09874); assay: RBC HotSpot PARP1 radioisotope-based filter binding assay; assay type: biochemical
Method: (§1) The following methods are for evaluating the in vitro biology properties of the test articles. • a. RBC HotSpot Poly(ADP-ribose) Polymerases 1 (PARP1) and Poly(ADP-ribose) Polymerases 2 (PARP2) Assays: The assay principle is radioisotope-based filter binding assay where incorporation of radioisotope-labeled NAD^+ into the substrate captured on filter is detected after washout free NAD^+. Data were analyzed using Excel and GraphPad Prism software for IC50 curve fits. Each assay was conducted with PJ34 as a positive control. • i. PARP1 assay: Human recombinant PARP1 at a final concentration of 2.5 nM was combined with histone H4 (20 μM) and test articles at various concentrations in reaction buffer (50 mM Tris-HCL, pH 8.0, 50 mM NaCl, 10 mM MgCl2, 1 mM DTT, 1% DMSO, and 20 μg/mL activated DNA). The solution was inoculated for 20 min at room temperature and the reaction initiated by adding [adenylate-^32P]-Nicotinamide Adenine Dinucleotide, ^32P-NAD^+ at a final concentration of 10 μM. After incubation for 2 hour at room temperature, the reaction mixture was filtered and washed with 0.75% phosphoric acid for radioactivity detection. • ii. PARP2 assay: Human recombinant PARP2 at a final concentration of 2.5 nM was combined with histone H3 (20 μM) and test articles at various concentrations in reaction buffer (50 mM Tris-HCL, pH 8.0, 50 mM NaCl, 10 mM MgCl2, 1 mM DTT, 1% DMSO, and 20 μg/mL activated DNA). The solution was inoculated for 20 min at room temperature and the reaction was initiated by adding [adenylate-^32P]-Nicotinamide Adenine Dinucleotide, ^32P-NAD^+ at a final concentration of 10 μM. After incubation for 2 hour at room temperature, the reaction mixture was filtered and washed with 0.75% phosphoric acid for radioactivity detection. • b. AR binding assay: AR in LNCaP cytosol was used for determining the binding affinity of test articles and the reference compound—progesterone (Sigma, Cat: E2785, St. Louis, MO). IC50s were determined using 8 concentrations/compound. Cytosol was plated at 200 μg/well (100 μL) into a 96-well conical polypropylene plate (Agilent, Cat: 5042-1385, Santa Clara, CA) and mixed with 3 μL of test compound. After adding 100 μL of ^3H-methyltrienolone (PerkinElmer, Cat: NET590250UC, San Jose, CA), the plate was sealed and shaken at 300 rpm at 4° C. for 24 hours. Post incubation, 100 μL of radioligand adsorption buffer containing 10 mM Tris-HCl, pH 7.4; 1.5 mM EDTA; 1 mM DTT; 0.25% charcoal; 0.0025% dextran was added to individual well. Plate was shaken for 15 min at 4′C followed by centrifugation at 3000 rpm for 30 min at 4° C. 150 μL of supernatant was transferred into scint-tube (PerkinElmer, Cat: 6000192) and mixed with 2 mL of Ultima Gold Cocktail (PerkinElmer, Cat: 6013329). Radioactivity was counted using a TriCarb 2910 TR scintillation counter (PerkinElmer). Inhibition of the radioactivity by test articles were calculated using the equation below: % Inhibition=(1−(Assay well−Average_LC)/(Average_HC−Average_LC))×100%.

[2] = molecular target: T1, AR in LNCaP cytosol (Homo sapiens, UniProt P10275, T878A); assay: AR binding assay (3H-methyltrienolone displacement)
T1 construct: endogenous in cells; host or cells: LNCaP cytosol
T1 sequence (P10275 1-920 T878A): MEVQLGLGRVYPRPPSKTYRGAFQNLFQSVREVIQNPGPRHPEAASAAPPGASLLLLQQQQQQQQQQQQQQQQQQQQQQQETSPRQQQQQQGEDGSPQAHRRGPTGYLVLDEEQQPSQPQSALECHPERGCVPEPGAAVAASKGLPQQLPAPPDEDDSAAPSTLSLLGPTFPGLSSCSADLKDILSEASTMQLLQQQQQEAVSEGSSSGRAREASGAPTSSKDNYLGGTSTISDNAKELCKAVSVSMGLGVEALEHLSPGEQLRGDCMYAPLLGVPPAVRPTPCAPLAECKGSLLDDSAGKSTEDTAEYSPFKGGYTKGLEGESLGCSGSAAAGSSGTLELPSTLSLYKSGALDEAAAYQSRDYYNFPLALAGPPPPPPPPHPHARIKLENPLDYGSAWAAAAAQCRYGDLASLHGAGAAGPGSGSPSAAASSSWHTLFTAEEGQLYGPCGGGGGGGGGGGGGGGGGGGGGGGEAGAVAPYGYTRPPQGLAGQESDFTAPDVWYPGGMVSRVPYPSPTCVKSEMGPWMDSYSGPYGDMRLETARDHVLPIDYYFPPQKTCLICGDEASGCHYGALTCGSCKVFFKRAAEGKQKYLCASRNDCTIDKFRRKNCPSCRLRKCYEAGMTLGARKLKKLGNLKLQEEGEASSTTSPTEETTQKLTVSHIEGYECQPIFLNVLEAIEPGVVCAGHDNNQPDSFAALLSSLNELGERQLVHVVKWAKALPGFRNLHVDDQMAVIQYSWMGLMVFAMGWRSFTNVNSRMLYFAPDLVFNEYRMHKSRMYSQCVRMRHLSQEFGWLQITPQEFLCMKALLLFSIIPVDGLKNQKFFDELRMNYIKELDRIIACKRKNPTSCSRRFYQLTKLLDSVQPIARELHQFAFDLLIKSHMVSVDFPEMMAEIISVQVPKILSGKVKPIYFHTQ
Method: as §1
IC50 values were calculated and graphed using the model “log(inhibitor) vs. response—Variable slope” included in GraphPad Prism 5 (San Diego, CA). The Ki values were further calculated using the equation below where [L] was the radioligand concentration (1 nM) using in this study. Kd value was 0.332 nM. Ki=IC50/(1+[L]/Kd) c. AR transactivation: Human AR cloned into a CMV vector backbone was used for the transactivation study. HEK-293 cells were plated at 80,000 cells per well of a 24 well plate in DME+5% csFBS. Twenty four hours later, the cells were transfected using Lipofectamine (Invitrogen, Carlsbad, CA) with 0.25 μg GRE-LUC, 0.01 μg CMV-LUC (renilla luciferase) and 25 ng of the AR in OPTIMEM medium. The cells were treated 24 hrs after transfection with various ligands (10^−12 to 10^−5 M final concentrations) and luciferase assay were performed 48 hours after transfection. […]

[3] = molecular target: Human recombinant PARP2 (Homo sapiens, UniProt Q9UGN5); assay: RBC HotSpot PARP2 radioisotope-based filter binding assay; assay type: biochemical
Method: as §1

[4] = 2.5 nM enzyme, histone H4, 10 μM 32P-NAD+, read-out: PARP1 IC50
[5] = 2.5 nM enzyme, histone H3, 10 μM 32P-NAD+, read-out: PARP2 IC50

Human recombinant PARP1, sequence (P09874 whole entry): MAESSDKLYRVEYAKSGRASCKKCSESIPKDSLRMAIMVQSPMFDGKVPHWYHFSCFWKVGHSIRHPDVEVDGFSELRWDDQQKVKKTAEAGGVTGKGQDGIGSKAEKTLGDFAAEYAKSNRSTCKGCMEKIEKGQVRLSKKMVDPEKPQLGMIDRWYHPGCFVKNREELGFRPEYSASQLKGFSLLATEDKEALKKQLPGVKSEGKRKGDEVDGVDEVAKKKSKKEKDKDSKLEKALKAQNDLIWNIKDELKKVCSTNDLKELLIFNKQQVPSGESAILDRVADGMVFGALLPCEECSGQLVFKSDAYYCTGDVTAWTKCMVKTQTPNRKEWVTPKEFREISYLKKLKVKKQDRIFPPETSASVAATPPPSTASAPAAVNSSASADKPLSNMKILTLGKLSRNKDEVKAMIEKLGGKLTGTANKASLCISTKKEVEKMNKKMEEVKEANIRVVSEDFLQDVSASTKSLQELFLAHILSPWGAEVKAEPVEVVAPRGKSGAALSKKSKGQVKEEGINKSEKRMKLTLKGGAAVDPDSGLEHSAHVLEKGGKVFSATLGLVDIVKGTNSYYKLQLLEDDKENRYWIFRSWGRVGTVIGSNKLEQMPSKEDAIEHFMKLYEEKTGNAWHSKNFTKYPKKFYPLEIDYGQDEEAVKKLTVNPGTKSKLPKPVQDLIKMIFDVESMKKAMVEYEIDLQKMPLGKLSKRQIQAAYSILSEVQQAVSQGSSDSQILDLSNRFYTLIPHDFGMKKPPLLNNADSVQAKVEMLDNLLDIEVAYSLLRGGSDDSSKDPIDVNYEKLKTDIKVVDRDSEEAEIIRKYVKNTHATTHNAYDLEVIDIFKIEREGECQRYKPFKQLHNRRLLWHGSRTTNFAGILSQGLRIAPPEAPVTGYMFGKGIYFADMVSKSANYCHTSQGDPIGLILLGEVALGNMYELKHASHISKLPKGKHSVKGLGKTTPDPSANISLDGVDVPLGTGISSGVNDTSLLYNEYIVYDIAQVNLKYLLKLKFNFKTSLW
Human recombinant PARP2, sequence (Q9UGN5 whole entry): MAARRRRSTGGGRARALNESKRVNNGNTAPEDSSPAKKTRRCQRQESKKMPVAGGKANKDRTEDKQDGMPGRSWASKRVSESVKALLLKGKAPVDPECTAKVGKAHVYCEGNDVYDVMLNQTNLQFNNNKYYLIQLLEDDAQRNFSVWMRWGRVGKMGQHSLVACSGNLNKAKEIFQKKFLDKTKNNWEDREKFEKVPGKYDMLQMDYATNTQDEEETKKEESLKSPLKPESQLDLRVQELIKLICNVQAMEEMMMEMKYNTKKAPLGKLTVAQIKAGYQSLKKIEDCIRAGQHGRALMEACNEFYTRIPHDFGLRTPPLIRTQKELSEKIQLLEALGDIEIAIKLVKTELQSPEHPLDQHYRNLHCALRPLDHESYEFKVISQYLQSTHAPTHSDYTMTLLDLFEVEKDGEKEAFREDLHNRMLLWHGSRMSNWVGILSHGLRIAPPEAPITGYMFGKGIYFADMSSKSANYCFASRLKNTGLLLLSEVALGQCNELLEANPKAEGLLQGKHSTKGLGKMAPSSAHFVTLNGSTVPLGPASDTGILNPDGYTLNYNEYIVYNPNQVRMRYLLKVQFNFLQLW

Q: Which results are given for `C[C@]12CCC(F)(F)C[C@@H]1CC[C@@H]1[C@@H]2CC[C@]2(C)[C@@H](OCCCCCC(=O)N3CCN(C(=O)c4cc(Cc5n[nH]c(=O)c6ccccc56)ccc4F)CC3)CC[C@@H]12` [Compound 1.114, 4-(3-(4-(6-((5S,8R,9S,10S,13S,14S,17S)-3,3-difluoro-10,13-dimethylhexadecahydro-1H-cyclopenta[a]phenanthren-17-yloxy)hexanoyl)piperazine-1-carbonyl)-4-fluorobenzyl)phthalazin-1(2H)-one]?
A: IC50 [1, 4]: 27.9 nM; Ki [2]: 19 nM; IC50 [3, 5]: 1.9 nM

Q: Which results are given for `C[C@]12CCC(=O)C[C@@H]1CC[C@@H]1[C@@H]2CC[C@@]2(C)[C@H]1CC[C@@]2(O)CCCN1CCN(C(=O)c2cc(Cc3n[nH]c(=O)c4ccccc34)ccc2F)CC1` [Compound 1.119, 4-(4-fluoro-3-(4-(3-((5S,8R,9S,10S,13S,14S,17R)-17-hydroxy-10,13-dimethyl-3-oxohexadecahydro-1H-cyclopenta[a]phenanthren-17-yl)propyl)piperazine-1-carbonyl)benzyl)phthalazin-1(2H)-one]?
A: IC50 [1, 4]: 1.6 nM; Ki [2]: 20 nM; IC50 [3, 5]: 0.3 nM

Q: Which results are given for `C[C@]12CCC(=O)C[C@@H]1CC[C@@H]1[C@@H]2CC[C@]2(C)[C@@H](OCCCCCC(=O)N3CCN(C(=O)c4cc(Cc5n[nH]c(=O)c6ccccc56)ccc4F)CC3)CC[C@@H]12` [Compound 1.2, 4-(3-(4-(6-(((5S,8R,9S,10S,13S,14S,17S)-10,13-dimethyl-3-oxohexadecahydro-1H-cyclopenta[a]phenanthren-17-yl)oxy)hexanoyl)piperazine-1-carbonyl)-4-fluorobenzyl)phthalazin-1(2H)-one]?
A: IC50 [1, 4]: 3 nM; Ki [2]: 1.31 nM; IC50 [3, 5]: 0.2 nM

Q: `C[C@](O)(CS(=O)(=O)c1ccc(NCCCCCC(=O)N2CCN(C(=O)c3cc(Cc4n[nH]c(=O)c5ccccc45)ccc3F)CC2)cc1)C(=O)Nc1ccc(C#N)c(C(F)(F)F)c1` [Compound 1.68, (R)-N-(4-cyano-3-(trifluoromethyl)phenyl)-3-(4-(6-(4-(2-fluoro-5-((4-oxo-3,4-dihydrophthalazin-1-yl)methyl)benzoyl)piperazin-1-yl)-6-oxohexylamino)phenylsulfonyl)-2-hydroxy-2-methylpropanamide] was tested. Which IC50 [1] did it give?
A: The IC50 was 0.3 nM.

Q: What about the Ki [2] of the same molecule?
A: The Ki was 907 nM.

Q: And the IC50 [3]?
A: The IC50 was 0.2 nM.

Q: `C[C@](O)(CS(=O)(=O)c1ccc(NCCN2CCN(C(=O)c3cc(Cc4n[nH]c(=O)c5ccccc45)ccc3F)CC2)cc1)C(=O)Nc1ccc(C#N)c(C(F)(F)F)c1` [Compound 1.99, (R)-N-(4-cyano-3-(trifluoromethyl)phenyl)-3-(4-(2-(4-(2-fluoro-5-((4-oxo-3,4-dihydrophthalazin-1-yl)methyl)benzoyl)piperazin-1-yl)ethylamino)phenylsulfonyl)-2-hydroxy-2-methylpropanamide] was tested. Which IC50 [1] did it give?
A: The IC50 was 0.8 nM.

Q: What about the Ki [2] of the same molecule?
A: Its Ki is 197 nM.

Q: What about the IC50 [3] of the same molecule?
A: Its IC50 is 0.2 nM.

Q: With `C[C@]12CCC(=O)C[C@@H]1CC[C@@H]1[C@@H]2CC[C@@]2(C)[C@H]1CC[C@@]2(O)c1cn(CC(=O)N2CCN(C(=O)c3cc(Cc4n[nH]c(=O)c5ccccc45)ccc3F)CC2)nn1` [Compound 1.107, 4-(4-fluoro-3-(4-(2-(4-((5S,8R,9S,10S,13S,14S,17S)-17-hydroxy-10,13-dimethyl-3-oxohexadecahydro-1H-cyclopenta[a]phenanthren-17-yl)-1H-1,2,3-triazol-1-yl)acetyl)piperazine-1-carbonyl)benzyl)phthalazin-1(2H)-one] as the molecule, how does the IC50 [1, 4] read?
A: Its IC50 is 0.3 nM.

Q: And the Ki ([2]; Ki=IC50/(1+[L]/Kd), [L] 1 nM, Kd 0.332 nM, read-out: AR Ki)?
A: The Ki was greater than 7470 nM.

Q: What about the IC50 [3, 5] of the same molecule?
A: Its IC50 is 0.1 nM.

Q: Which results are given for `C[C@]12CCC(O)C[C@@H]1CC[C@@H]1[C@@H]2CC[C@]2(C)[C@@H](OCCCCCC(=O)N3CCN(C(=O)c4cc(Cc5n[nH]c(=O)c6ccccc56)ccc4F)CC3)CC[C@@H]12` (stereo partly drawn) [Compound 1.111, 4-(4-fluoro-3-(4-(6-((5S,8R,9S,10S,13S,14S,17S)-3-hydroxy-10,13-dimethylhexadecahydro-1H-cyclopenta[a]phenanthren-17-yloxy)hexanoyl)piperazine-1-carbonyl)benzyl)phthalazin-1(2H)-one]?
A: IC50 [1, 4]: 1.6 nM; Ki [2]: 36 nM; IC50 [3, 5]: 0.2 nM

Q: Which results are given for `C[C@]12CCC(=O)C[C@@H]1CC[C@@H]1[C@@H]2CC[C@]2(C)[C@@H](OCC(=O)N3CCN(C(=O)c4cc(Cc5n[nH]c(=O)c6ccccc56)ccc4F)CC3)CC[C@@H]12` [Compound 1.110, 4-(3-(4-(2-((5S,8R,9S,10S,13S,14S,17S)-10,13-dimethyl-3-oxohexadecahydro-1H-cyclopenta[a]phenanthren-17-yloxy)acetyl)piperazine-1-carbonyl)-4-fluorobenzyl)phthalazin-1(2H)-one]?
A: IC50 [1, 4]: 0.7 nM; Ki [2]: 60 nM; IC50 [3, 5]: 0.2 nM

Q: Which results are given for `C[C@](O)(CS(=O)(=O)c1ccc(NCC(=O)N2CCN(C(=O)c3cc(Cc4n[nH]c(=O)c5ccccc45)ccc3F)CC2)cc1)C(=O)Nc1ccc(C#N)c(C(F)(F)F)c1` [Compound 1.98, (R)-N-(4-cyano-3-(trifluoromethyl)phenyl)-3-(4-(2-(4-(2-fluoro-5-((4-oxo-3,4-dihydrophthalazin-1-yl)methyl)benzoyl)piperazin-1-yl)-2-oxoethylamino)phenylsulfonyl)-2-hydroxy-2-methylpropanamide]?
A: IC50 [1]: 0.2 nM; Ki [2]: 181 nM; IC50 [3]: 0.1 nM

Q: What does the source list for `C[C@](O)(COc1ccc(NCCCCCC(=O)N2CCN(C(=O)c3cc(Cc4n[nH]c(=O)c5ccccc45)ccc3F)CC2)cc1)C(=O)Nc1ccc(C#N)c(C(F)(F)F)c1` [Compound 1.83, (S)-N-(4-cyano-3-(trifluoromethyl)phenyl)-3-(4-(6-(4-(2-fluoro-5-((4-oxo-3,4-dihydrophthalazin-1-yl)methyl)benzoyl)piperazin-1-yl)-6-oxohexylamino)phenoxy)-2-hydroxy-2-methylpropanamide]?
A: IC50 [1, 4]: 0.7 nM; Ki [2]: 139 nM; IC50 [3, 5]: 0.3 nM
